In patent publication EP3442594B1, “BLOCK COPOLYMER FOR […] RESISTANCE OF TUMOURS TO CHEMOTHERAPY, ITS POLYMER-DRUG CONJUGATE, PHARMACEUTICAL COMPOSITION CONTAINING THEM, METHOD OF PREPARATION AND USE THEREOF” (Ustav makromolekularni chemie AV CR, v.v.i., priority 2016, dated 2017):
Values after ≈ are worked out from the molar mass of the structure shown. Values joined by “and” are separate entries in the source; they are usually repeats but may differ in a detail not shown here. Identical values can stand only once. Like-named read-outs stand apart in the source and are kept apart here.

Key:
[1] = Release of docetaxel or its derivative from polymer conjugates in phosphate buffers (HPLC); assay type: physicochemical; conditions: pH 7.4 compared with pH 5.0, 37°C, conjugate 5 mg/mL
Experimental: At predetermined time intervals 200 µL of incubation solution was collected and after the extraction of released drugs and derivatives thereof into chloroform their amounts were determined using an HPLC system (Shimadzu HPLC system equipped with a column with a reverse phase Chromolith Performance RP-18e (100 x 4.6 mm) and UV-VIS detector Shimadzu SPD-10AVvp (230 nm), eluent water-acetonitrile with gradient from 50 to 100 vol% of acetonitrile, flow rate of 0.5 mL x min^-1).

[2] = system: CT26 - colon carcinoma cell line; experiment: Cytostatic activity, 3H-thymidine incorporation; assay type: cell-based, murine
Experimental: (§1) These were murine tumour cell lines (CT26 - colon carcinoma cell line, 4T1 - mammary carcinoma cell line, both originating from the BALB/c inbred strain of mice, followed by EL4.IL-2-line of T-cell lymphoma originating from the C57BL/6 inbred strain of mice) and FaDu - a human line of squamous cell carcinoma of the head and neck. […] The cell proliferation was then determined using the standard method of incorporating ^3H-thymidine which was added for the last 6 hours of culture. Subsequently, the cultures were processed using the Tomtec Mach III harvester and, after drying, the radioactivity of samples obtained was measured by the beta-scintillation counter Microbeta Trilux (Wallac) using a solid scintillant (MeltiLex; Perkin Elmer). […] The activity of conjugates was determined by 3H-thymidine incorporation after 72 hours of incubation of cells with various concentrations of drugs. The IC50 values are given in ng of doxorubicin/mL and were calculated as a mean of several independent determinations.

NB4/DOX = experiment: IC50 of drugs with/without block copolymer, AlamarBlue method; assay type: cell-based; conditions: cells pre-incubated 1 hour with/without block copolymer at 250 µg/mL
Experimental: (§2) In in vitro experiments the cells were first incubated for 1 hour with/without a diblock or triblock copolymer at a concentration 250 µg/mL and thereto were added the above mentioned drugs in a concentration series. After 72 hours of incubation the metabolic activity of cells was determined using the AlamarBlue method and from it the IC50 of individual drugs. An experiment was performed with non-degradable diblock polymers PHPMA-PPO (Example 20) and triblock polymers (PHPMA)2-PPO (Example 21) as a control.

NB3/DOX = experiment: as above; assay type: cell-based; conditions: cells pre-incubated 1 hour with/without block copolymer at 250 µg/mL
Experimental: as §2

[3] = system: murine T-cell lymphoma EL4; assay type: in vivo
Experimental: (§3) The in vivo antitumour effect of micellar diblock polymer conjugate of Example 28 carrying doxorubicin (DOX-DB) was studied on a model of murine T-cell lymphoma EL4 in the C57BL/6 inbred strains of mice. The conjugate was administered to mice intravenously (i.v.) in a single dose equivalent to 7.5 mg of doxorubicin/kg. The drug was injected 8 days after subcutaneous administration of 1 x 10^5 EL4 tumour cells, at a time when tumours are developed and the tumour bed size is about 6-8 mm in diameter. […] Further, the free doxorubicin (DOX) was used for treatment, injected at a total dose of 10 mg/kg, which, due to the different pharmacokinetics of a low molecular weight drug and the associated danger of high systemic toxicity, was injected in two partial intravenous doses on the 8th and 12th day after transplantation of tumour cells (each dose of 5 mg of doxorubicin).
(§4) Days mean the death of animals after administration of tumour cells (1 x 10^5 cells EL4 s.c. on day 0), LTS ("long term survivor") means long-term surviving mice without evidence of tumour (at least until day 70 after administration of tumour cells). The last line contains information about the median survival in groups.

[4] = system: EL4.IL-2-line of T-cell lymphoma; experiment: Cytostatic activity, 3H-thymidine incorporation; assay type: cell-based, murine; conditions: Mus musculus, EL4.IL-2, 72 hours
Experimental: as §1

[5] = system: 4T1 - mammary carcinoma cell line; experiment: Cytostatic activity, 3H-thymidine incorporation; assay type: cell-based, murine; conditions: Mus musculus; 4T1, 72 hours
Experimental: as §1

[6] = system: FaDu - a human line of squamous cell carcinoma of the head and neck; experiment: Cytostatic activity, 3H-thymidine incorporation; assay type: cell-based; conditions: 72 hours
Experimental: as §1

[7] = system: murine T-cell lymphoma EL4; experiment: In vivo antitumour effect in the treatment of EL4 lymphoma; set-up: species or system C57BL/6 mice
Experimental: as §3, §4

[8] = read-out: IC50 after 72 hours of incubation

[raft-poly(HPMA-co-MA-AH-NHN=DTX-LEV)]-GFLG-PPO-NH2 [Example 28B]
release of drug DTX (or its derivative) [1]: released significantly slower

[raft-poly(HPMA-co-MA-AH-NHN=DOX)]-GFLG-PPO-NH2 [DB-DOX]
decrease of the cytostatic effect of doxorubicin by binding the drug to a diblock carrier [2]: 2.6 times
IC50 after 72 hours of incubation (NB4/DOX): 7.07 ± 0.11 µg/mL
IC50 after 72 hours of incubation (NB3/DOX): 0.919 ± 0.020 µg/mL
first mouse with complete tumour regression, time after drug administration ([3]; 1 x 7.5 mg DOX eq./kg): eighth day
median survival ([3]; 1 x 7.5 mg DOX eq./kg i.v.): 47.5 days
tumour growth in comparison to untreated controls ([3]; 1 x 7.5 mg DOX eq./kg i.v.): tumour growth stagnation within three days and a significant reduction in growth between the third and sixth day after administration of the drug
Survival: day of death of individual animals after administration of tumour cells ([3]; 1 x 7.5 mg DOX eq./kg i.v. on day 8): 37 Days and 39 Days and 42 Days (2×) and 60 Days and LTS (LTS ("long term survivor") means long-term surviving mice without evidence of tumour (at least until day 70 after administration of tumour cells)) (3×)
complete cure (share of subjects) ([3]; 1 x 7.5 mg DOX eq./kg i.v., 8 mice): 37.5%
mice without apparent tumour at the place of administration ([3]; 13 days after drug administration, 1 x 7.5 mg DOX eq./kg): 4 mice (out of 8)
resistance against tumour after retransplantation of cured mice (LTS) ([3]; retransplanted 119 days after the first tumour, no treatment): of these three mice two were resistant

COc1cccc2c1C(=O)c1c(O)c3c(c(O)c1C2=O)C[C@@](O)(C(=O)CO)C[C@@H]3O[C@H]1C[C@H](N)[C@H](O)[C@H](C)O1 [DOX, doxorubicin]
IC50 [4]: 0.0122 µg/mL (≈ 0.0224 µM)
IC50 [5]: 0.0143 µg/mL (≈ 0.0263 µM)
IC50 ([2]; Mus musculus, CT26, 72 hours): 0.0425 µg/mL (≈ 0.0782 µM)
IC50 [6]: 0.0048 µg/mL (≈ 0.00883 µM)
IC50 (NB4/DOX; [8]): 2.61 ± 0.17 µg/mL (≈ 4.8 µM)
IC50 after 72 hours of incubation (NB3/DOX): 0.168 ± 0.005 µg/mL
IC50 (NB3/DOX; [8]): 0.215 ± 0.004 µg/mL (≈ 0.396 µM)
complete cure ([7]; 2 x 5 mg DOX/kg i.v.): none
median survival ([7]; 2 x 5 mg DOX/kg i.v.): 40.5 days
tumour growth in comparison to untreated controls ([7]; 2 x 5 mg DOX/kg i.v.): the average tumour growth was slower than in the group of untreated mice, but showed a steady progression
Survival: day of death of individual animals after administration of tumour cells ([7]; 2 x 5 mg DOX/kg i.v. on days 8 and 12): 35 Days and 38 Days and 39 Days and 42 Days and 53 Days (2×)
